Test results: US20090169603A1, “Adhesive Pharmaceutical Preparation” (NITTO DENKO CORPORATION, priority 2005, published 2009)
Read-outs that look alike come from different tables or passages of the source. Blank lines part the entries; values can stand above or below the molecule they belong to.

Experiments:
[1] = Measurement of viscosity at 40° C. (type E viscometer); type: physicochemical
Method: Viscosity of the drug is measured using a type E viscometer while keeping the drug at a predetermined temperature. According to the invention, when the viscosity of a drug at a predetermined temperature is from 0.05 to 100,000 mPa·s, the drug is liquid at the predetermined temperature. In addition, the “logPow” is an index which expresses hydrophilic property or hydrophobicity of the drug, and is a value measured on individual drugs in accordance with the method described in “OECD GUIDELINE FOR THE TESTING OF CHEMICALS 107, Adopted by the Council on 27 Jul. 1995, Partition Coefficient (n-octanol/water), Shake Flask Method)”, and the base of logarithm of logPow is 10.
In addition, the viscosity of a drug at 40° C. is measured using a type E viscometer while heating the drug at 40° C.
5. Measurement of Viscosity at 40° C.
Viscosity of drugs at 40° C. was measured using a type E viscometer (type E viscometer mfd. By Tokyo Keiki, VISCONIC Type ED).

[2] = Measurement of logPow (OECD 107, n-octanol/water, shake flask method); type: physicochemical
Method: In this case, the “drug which is liquid at room temperature or around room temperature” means a drug which is liquid at a temperature where the adhesive pharmaceutical preparation after its production is generally preserved, namely any temperature within a temperature range of from 1 to 40° C. Within such a temperature range, the drug has such a degree of fluidity that it can cause bleeding. Viscosity of the drug is measured using a type E viscometer while keeping the drug at a predetermined temperature. According to the invention, when the viscosity of a drug at a predetermined temperature is from 0.05 to 100,000 mPa·s, the drug is liquid at the predetermined temperature. In addition, the “logPow” is an index which expresses hydrophilic property or hydrophobicity of the drug, and is a value measured on individual drugs in accordance with the method described in “OECD GUIDELINE FOR THE TESTING OF CHEMICALS 107, Adopted by the Council on 27 Jul. 1995, Partition Coefficient (n-octanol/water), Shake Flask Method)”, and the base of logarithm of logPow is 10.
The “logPow” is obtained by a calculation after partitioning a drug into water layer and n-octanol layer and determining the drug concentration of each layer by an appropriate method, in accordance with the method described in the above-mentioned guideline. The quantitative determination of drugs is not particularly limited so long as it is a method in which its determinability was verified, for example, by verifying linearity of its calibration curve, but in general, an absorptiometry, a gas chromatography or a high performance liquid chromatography is used. […] In addition, when the drug is a dissociating substance, the logPow is measured while suppressing its dissociation in accordance with the guideline. That is, the logPow is measured using a buffer of appropriate pH as the water layer under a condition of a free acid or free base. When the drug is an acidic drug, a buffer having a pH value which is lower by a factor of 1 than the pKa value of the drug is used. When the drug is a basic drug, a buffer having a pH value which is higher by a factor of 1 than the pKa value of the drug is used.
In this connection, although the measurement range of logPow is generally set from −2 to 4 according to this guideline, the measurement range of logPow can be set to −2 to 5 by increasing the determination sensitivity by making use of high sensitivity analytical methods such as a high performance liquid chromatography.
LogPow was measured in accordance with the “OECD GUIDELINE FOR THE TESTING OF CHEMICALS 107, Adopted by the Council on 27th Jul. 1995, Partition Coefficient (n-Octanol/water), Shake Flask Method)”. Water layers, determination methods and results of the LogPow measurement at the time of the measurement of LogPow are shown in Table 3.

[3] = water layer pH 10 buffer, HPLC method

Viscosity [1]: 16 mPa·s
logP ([2]; n-octanol/water, water layer distilled water, HPLC method): 3.1
LogPow ([2]; water layer distilled water, HPLC method): Crotamiton (3.1)
LogPow ([2]; water layer distilled water, HPLC method, listed as crotamiton): 3.1
Compound: CC=CC(=O)N(CC)c1ccccc1C (mixture of isomers) [Crotamiton, crotamiton]

Viscosity [1]: 280 mPa·s
logD ([2]; n-octanol/water, water layer pH 10 buffer, HPLC method): 2.4
LogPow [2, 3]: base (2.4)
LogPow ([2]; water layer pH 10 buffer, HPLC method, listed as emedastine free base): 2.4
Compound: CCOCCn1c(N2CCCN(C)CC2)nc2ccccc21 [Emedastine free base, emedastine free base]

Viscosity [1]: 4500 mPa·s
Viscosity ([1]; listed as gallopamil): 4,500 mPa·s
LogPow [2, 3]: 4.8
Compound: COc1ccc(CCN(C)CCCC(C#N)(c2cc(OC)c(OC)c(OC)c2)C(C)C)cc1OC (stereo not shown) [Gallopamil free base, gallopamil free base]

LogPow ([2]; water layer distilled water, titration method): −1.1
Compound: OCC(O)CO [Glycerol]

Viscosity [1]: 280 mPa·s
logD ([2]; n-octanol/water, water layer pH 9.2 buffer, HPLC method): > 5
LogPow ([2]; water layer pH 9.2 buffer, HPLC method): base (>5.0)
LogPow ([2]; water layer pH 9.2 buffer, HPLC method, listed as terbinafine): > 5.0
Compound: CN(C/C=C/C#CC(C)(C)C)Cc1cccc2ccccc12 [Terbinafine free base]
